Laboratory results reported in patent US8415376B2, “Inhibitors of PI3 kinase” (Amgen Inc., priority 2008, dated 2013).

Assays:
[1] = target: T1, PI3Kα (Homo sapiens, UniProt P42336); assay: In vitro PI3K AlphaScreen assay; assay type: biochemical; details: average if run more than once
T1 construct: Full length p110 subunits of PI3K α, β and δ, N-terminally labeled with polyHis tag; polyHis (N); made in house; host or cells: Sf9 insect cells (baculovirus)

[2] = target: T2, mTOR (Homo sapiens, UniProt P42345); assay: In vitro mTOR assay (Lanthascreen); assay type: biochemical; details: average if run more than once
T2 construct: purchased Invitrogen (Carlsbad, Calif.)
T2 sequence (P42345 1360-2549 limits assumed): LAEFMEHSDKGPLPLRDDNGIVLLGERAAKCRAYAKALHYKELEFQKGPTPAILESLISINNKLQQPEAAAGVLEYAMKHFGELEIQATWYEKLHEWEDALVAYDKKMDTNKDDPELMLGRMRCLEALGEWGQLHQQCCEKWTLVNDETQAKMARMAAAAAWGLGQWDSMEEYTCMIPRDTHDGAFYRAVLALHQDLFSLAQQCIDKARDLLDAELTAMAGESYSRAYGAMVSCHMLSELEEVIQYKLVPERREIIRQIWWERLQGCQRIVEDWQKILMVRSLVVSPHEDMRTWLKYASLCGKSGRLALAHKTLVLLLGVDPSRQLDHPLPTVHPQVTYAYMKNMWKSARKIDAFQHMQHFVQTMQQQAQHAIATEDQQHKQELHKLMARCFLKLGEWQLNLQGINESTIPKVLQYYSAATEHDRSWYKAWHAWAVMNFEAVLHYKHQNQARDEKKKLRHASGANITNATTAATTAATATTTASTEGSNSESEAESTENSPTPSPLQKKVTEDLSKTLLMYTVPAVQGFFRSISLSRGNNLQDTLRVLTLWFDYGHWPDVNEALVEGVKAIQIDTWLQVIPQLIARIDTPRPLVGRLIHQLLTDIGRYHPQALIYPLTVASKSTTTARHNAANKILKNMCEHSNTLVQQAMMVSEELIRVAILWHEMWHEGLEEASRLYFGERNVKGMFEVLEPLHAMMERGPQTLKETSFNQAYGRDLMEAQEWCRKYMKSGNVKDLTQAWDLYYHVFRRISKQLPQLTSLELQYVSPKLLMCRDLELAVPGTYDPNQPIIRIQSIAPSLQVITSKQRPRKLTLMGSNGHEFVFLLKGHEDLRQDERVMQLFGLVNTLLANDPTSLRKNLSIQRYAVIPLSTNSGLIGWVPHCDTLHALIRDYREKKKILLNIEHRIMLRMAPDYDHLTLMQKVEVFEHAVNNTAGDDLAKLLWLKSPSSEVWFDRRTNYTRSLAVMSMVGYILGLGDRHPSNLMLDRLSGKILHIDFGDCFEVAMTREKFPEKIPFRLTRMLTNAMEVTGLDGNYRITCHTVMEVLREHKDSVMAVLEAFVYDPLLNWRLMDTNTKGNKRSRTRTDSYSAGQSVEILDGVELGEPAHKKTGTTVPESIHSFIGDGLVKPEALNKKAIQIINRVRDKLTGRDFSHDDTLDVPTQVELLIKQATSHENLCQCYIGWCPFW
Procedure, shortened: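 mTOR activity measured by TR-FRET as Thr46 phosphorylation of GFP-4E-BP1, detected with Tb-labelled anti-phospho-4E-BP1 [T46] antibody after EDTA stop. Final 50 ng/mL mTOR, 400 nM GFP-4E-BP1, 7 μM ATP in HEPES pH 7.5 with 10 mM MnCl2; 1 h, room temperature. 10-point 1:3 compound series.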

[3] = system: phosphorylation of Akt at Serine 473; assay: pAkt AlphaScreen (U87 cell); assay type: cell-based; details: Homo sapiens, U-87 MG; U87 MG cells, pAkt Ser473; average
Procedure, shortened: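 U87 MG cells (5K per well, plated overnight) were exposed to compound for two hours at 37° C, 25 μM down to 11.9 pM in 0.5% DMSO. After lysis, phospho-Akt Ser473 was measured by SureFire AlphaScreen following overnight room-temperature incubation, and IC50 was derived from percent of control.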

T1 sequence (P42336 whole entry): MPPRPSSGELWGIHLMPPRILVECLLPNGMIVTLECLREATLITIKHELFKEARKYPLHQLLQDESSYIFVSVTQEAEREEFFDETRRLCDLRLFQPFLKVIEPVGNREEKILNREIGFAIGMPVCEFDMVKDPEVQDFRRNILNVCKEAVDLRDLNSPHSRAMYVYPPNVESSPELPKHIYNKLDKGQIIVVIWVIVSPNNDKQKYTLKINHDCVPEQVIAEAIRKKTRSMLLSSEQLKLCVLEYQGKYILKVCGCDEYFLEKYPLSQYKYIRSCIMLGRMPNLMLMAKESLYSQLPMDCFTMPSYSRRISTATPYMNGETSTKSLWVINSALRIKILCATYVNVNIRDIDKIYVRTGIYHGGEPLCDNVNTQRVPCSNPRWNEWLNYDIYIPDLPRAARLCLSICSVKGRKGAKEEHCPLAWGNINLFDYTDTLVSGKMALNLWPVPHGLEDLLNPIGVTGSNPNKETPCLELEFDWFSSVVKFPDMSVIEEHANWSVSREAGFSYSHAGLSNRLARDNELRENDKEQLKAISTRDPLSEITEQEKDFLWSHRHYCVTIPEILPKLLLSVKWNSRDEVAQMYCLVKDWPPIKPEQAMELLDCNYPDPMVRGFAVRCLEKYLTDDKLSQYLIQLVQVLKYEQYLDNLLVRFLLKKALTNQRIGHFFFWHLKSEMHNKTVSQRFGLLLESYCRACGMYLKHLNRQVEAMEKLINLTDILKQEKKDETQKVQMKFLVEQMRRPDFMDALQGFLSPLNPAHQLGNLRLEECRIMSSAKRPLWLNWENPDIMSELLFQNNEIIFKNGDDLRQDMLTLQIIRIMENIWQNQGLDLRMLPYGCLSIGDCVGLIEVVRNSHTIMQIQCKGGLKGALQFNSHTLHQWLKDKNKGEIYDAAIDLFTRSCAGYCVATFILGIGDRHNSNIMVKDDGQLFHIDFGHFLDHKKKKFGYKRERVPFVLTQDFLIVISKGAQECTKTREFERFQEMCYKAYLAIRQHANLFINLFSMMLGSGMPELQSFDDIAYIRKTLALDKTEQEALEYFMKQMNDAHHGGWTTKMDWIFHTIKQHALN
T1 sequence (P27986 whole entry partner): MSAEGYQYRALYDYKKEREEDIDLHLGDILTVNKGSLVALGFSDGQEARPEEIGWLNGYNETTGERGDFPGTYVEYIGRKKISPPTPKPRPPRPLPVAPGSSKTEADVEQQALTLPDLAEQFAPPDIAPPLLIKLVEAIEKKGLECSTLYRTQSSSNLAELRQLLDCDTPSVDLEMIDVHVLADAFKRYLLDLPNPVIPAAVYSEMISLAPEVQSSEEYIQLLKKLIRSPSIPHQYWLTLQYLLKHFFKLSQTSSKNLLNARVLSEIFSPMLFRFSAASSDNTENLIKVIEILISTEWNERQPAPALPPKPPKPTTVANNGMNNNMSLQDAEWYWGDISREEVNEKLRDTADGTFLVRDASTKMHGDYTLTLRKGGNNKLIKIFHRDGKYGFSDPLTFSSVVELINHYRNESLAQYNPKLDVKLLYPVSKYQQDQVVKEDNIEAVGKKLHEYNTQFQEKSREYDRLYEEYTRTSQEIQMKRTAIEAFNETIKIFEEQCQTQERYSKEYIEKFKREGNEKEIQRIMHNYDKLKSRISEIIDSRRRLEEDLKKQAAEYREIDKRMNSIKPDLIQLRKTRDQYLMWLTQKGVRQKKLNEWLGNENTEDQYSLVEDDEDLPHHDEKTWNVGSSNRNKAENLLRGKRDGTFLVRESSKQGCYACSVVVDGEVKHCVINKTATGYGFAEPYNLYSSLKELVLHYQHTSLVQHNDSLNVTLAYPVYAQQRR

Row | Compound | Ki [1] | IC50 [2] | IC50 [3]
1 | COc1ncc(-c2ccc3nccc(-c4ccncc4)c3c2)cc1NS(C)(=O)=O [Example 120, N-(2-Methoxy-5-(4-(pyridin-4-yl)quinolin-6-yl)pyridin-3-yl)methanesulfonamide] | 0.0035 µM | 0.0048 µM | 0.0147 µM
2 | CN(C)S(=O)(=O)Nc1cc(-c2ccc3nccc(N4CCOCC4)c3c2)cnc1Cl [Example 122, N′-(2-Chloro-5-(4-(4-morpholinyl)-6-quinolinyl)-3-pyridinyl)-N,N-dimethylsulfamide] | 0.0065 µM | 0.0182 µM | 0.0163 µM
3 | COCCN(C)S(=O)(=O)Nc1cc(-c2ccc3nccc(N4CCOCC4)c3c2)cnc1Cl [Example 123, N′-(2-Chloro-5-(4-(4-morpholinyl)-6-quinolinyl)-3-pyridinyl)-N-(2-methoxyethyl)-N-methylsulfamide] | 0.0054 µM | 0.0169 µM | 0.037 µM
4 | O=S(=O)(Nc1cc(-c2ccc3nccc(N4CCOCC4)c3c2)cnc1Cl)N1CCOCC1 [Example 124, N-(2-chloro-5-(4-morpholinoquinolin-6-yl)pyridin-3-yl)morpholine-4-sulfonamide] | 0.0046 µM | 0.0143 µM | 0.0399 µM
5 | CN(C)S(=O)(=O)Nc1cc(-c2ccc3nccc(Cl)c3c2)cnc1Cl [Example 125, N′-(2-chloro-5-(4-chloro-6-quinolinyl)-3-pyridinyl)-N,N-dimethylsulfamide] | 0.0033 µM | 0.0077 µM | 0.723 µM
6 | COCCN(C)c1ccnc2ccc(-c3cnc(Cl)c(NS(=O)(=O)N(C)CCOC)c3)cc12 [Example 126, N′-(2-chloro-5-(4-((2-methoxyethyl)(methyl)amino)-6-quinolinyl)-3-pyridinyl)-N-(2-methoxyethyl)-N-methylsulfamide] | 0.0801 µM | 0.134 µM | 0.669 µM
7 | O=S(=O)(Nc1cc(-c2ccc3c(c2)OCCO3)cnc1Cl)c1ccc(F)cc1 [Example 128, N-(2-Chloro-5-(2,3-dihydrobenzo[b][1,4]dioxin-6-yl)pyridin-3-yl)-4-fluorobenzenesulfonamide] | 0.0333 µM | 0.0527 µM | 20.4 µM
8 | CN(C)S(=O)(=O)Nc1cc(-c2ccc3ncc(=O)n(-c4ccccc4)c3c2)cnc1Cl [Example 130, N-(2-chloro-5-(3-oxo-4-phenyl-3,4-dihydroquinoxalin-6-yl)pyridin-3-yl)dimethylaminosulfonamide] | 0.0025 µM | 0.0012 µM | 0.0087 µM
9 | COCCN(C)S(=O)(=O)Nc1cc(-c2ccc3ncc(=O)n(-c4ccccc4)c3c2)cnc1Cl [Example 131, N-(2-chloro-5-(3-oxo-4-phenyl-3,4-dihydroquinoxalin-6-yl)pyridin-3-yl) 2-methoxy-N-methylethanaminosulfonamide] | 0.0032 µM | 0.0076 µM | 0.0092 µM
10 | COc1ccc(-n2c(=O)cnc3ccc(-c4cnc(Cl)c(NS(=O)(=O)N(C)C)c4)cc32)cn1 [Example 132, N-(2-chloro-5-(4-(6-methoxypyridin-3-yl)-3-oxo-3,4-dihydroquinoxalin-6-yl)pyridin-3-yl)dimethylaminosulfonamide] | 0.0022 µM | 0.0023 µM | 0.0408 µM
11 | CN(C)S(=O)(=O)Nc1cc(-c2ccc3ncc(=O)n(-c4cccc(C(F)(F)F)c4)c3c2)cnc1Cl [Example 133, N-(2-chloro-5-(3-oxo-4-(3-(trifluoromethyl)phenyl)-3,4-dihydroquinoxalin-6-yl)pyridin-3-yl)dimethylaminosulfonamide] | 0.0023 µM | 0.0005 µM | 0.0094 µM
12 | COCCN(C)S(=O)(=O)Nc1cc(-c2ccc3ncc(=O)n(-c4cccc(C(F)(F)F)c4)c3c2)cnc1Cl [Example 134, N-(2-Chloro-5-(3-oxo-4-(3-(trifluoromethyl)phenyl)-3,4-dihydroquinoxalin-6-yl)pyridin-3-yl) 2-methoxy-N-methylethanamino sulfonamide] | 0.0185 µM | 0.0042 µM | 0.0283 µM
13 | CN(C)S(=O)(=O)Nc1cc(N2CCc3nccc(N4CCOCC4)c3C2)cnc1Cl [Example 136, N′-(2-Chloro-5-(4-(4-morpholinyl)-7,8-dihydro-1,6-naphthyridin-6(5H)-yl)-3-pyridinyl)-N,N-dimethylsulfamide] | 0.111 µM | 0.065 µM | 0.289 µM
